The record followed here is patent publication US20060264460A1 (Wyeth, priority 2005, published 2006).

Structures are written as SMILES. pIC50: −log10 of the molar value.

In the first experiment the target is T1, human Cot/Tpl2 kinase (Homo sapiens, UniProt P41279).
T1 construct: human Cot/Tpl2 kinase construct encoding residues 30-398; 6His (N); made in house; host or cells: Sf9 insect cells, baculovirus system (BD Biosciences)
T1 sequence (P41279 30-398): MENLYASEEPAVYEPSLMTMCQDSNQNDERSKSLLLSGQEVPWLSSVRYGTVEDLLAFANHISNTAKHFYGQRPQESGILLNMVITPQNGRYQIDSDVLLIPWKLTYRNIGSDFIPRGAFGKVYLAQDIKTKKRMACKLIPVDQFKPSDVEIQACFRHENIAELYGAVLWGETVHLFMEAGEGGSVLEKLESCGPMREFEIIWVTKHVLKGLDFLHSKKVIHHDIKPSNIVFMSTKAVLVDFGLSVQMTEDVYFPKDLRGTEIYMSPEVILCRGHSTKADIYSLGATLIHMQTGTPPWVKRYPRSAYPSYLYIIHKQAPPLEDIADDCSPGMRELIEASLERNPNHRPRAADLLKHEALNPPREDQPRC
The experiment in a line: Tpl2/Cot kinase assay: GST-MEK1 phosphorylation detected by ELISA (DELFIA Eu). It is filed as biochemical. The settings on record: 0.4 nM Tpl2, 35 nM GST-MEK1, 50 uM ATP, 1 h at 30° C. An outline of the steps: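 His-tagged human Tpl2 from Sf9 cells, Ni-affinity and size-exclusion purified (monomer). 0.4 nM Tpl2 with 35 nM GST-MEK1, 50 uM ATP, MOPS pH 7.2, 1% DMSO, 1 h at 30° C; EDTA stop. MEK1 Ser217/221 phosphorylation detected by anti-phospho-MEK1 and Eu-labelled secondary ELISA; IC50 fitted.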
By pIC50 is commonly meant the IC50 on a negative log10 scale, so that one unit is a factor of ten. In the case of `CC(C)(C)OC(=O)COc1ccc(C#N)cc1CNc1ccc2ncc(C#N)c(Nc3ccc(F)c(Cl)c3)c2c1` [Example 45, (2-{[4-(3-Chloro-4-fluoro-phenylamino)-3-cyano-quinolin-6-ylamino]-methyl)-4-cyano-phenoxy)-acetic acid tert-butyl ester], the pIC50 is 4.83.
The same measure, in the same setting: under `COCCOc1ccc(C#N)cc1CNc1ccc2ncc(C#N)c(Nc3ccc(F)c(Cl)c3)c2c1` [Example 57, 4-(3-Chloro-4-fluoro-phenylamino)-6-[5-cyano-2-(2-methoxy-ethoxy)-benzylamino]-quinoline-3-carbonitrile] stands 6.19.
On the same count and under the same terms, under `N#Cc1cccc(CNc2ccc3ncc(C#N)c(Nc4ccc(F)c(Cl)c4)c3c2)c1` [Example 10, 4-(3-Chloro-4-fluoro-phenylamino)-6-(3-cyano-benzylamino)-quinoline-3-carbonitrile] stands 6.70.
Still for that read-out and setting: under `N#Cc1cnc2c(Cl)cc(NCCc3nnn[nH]3)cc2c1Nc1ccc(F)c(Cl)c1` [Example 200, 8-chloro-4-[(3-chloro-4-fluorophenyl)amino]-6-{[2-(1H-tetrazol-5-yl)ethyl]amino}quinoline-3-carbonitrile] stands 7.17.
In the case of `CC(Nc1ccc2ncc(C#N)c(Nc3ccc(F)c(Cl)c3)c2c1)c1cnccn1` (centres unmarked) [Example 260, 4-[(3-chloro-4-fluorophenyl)amino]-6-[(1-pyrazin-2-ylethyl)amino]quinoline-3-carbonitrile], the pIC50 was 6.08.
On the same count and under the same terms, under `Cn1c(CNc2ccc3ncc(C#N)c(Nc4ccc(F)c(Cl)c4)c3c2)nc2ccccc21` [Example 7, 4-(3-Chloro-4-fluoro-phenylamino)-6-[(1-methyl-1H-benzoimidazol-2-ylmethyl)-amino]-quinoline-3-carbonitrile] stands 7.74.
The same measure, in the same setting: under `Cc1nc2ccc(NCc3cnc[nH]3)cc2c(Nc2ccc(F)c(Cl)c2)c1C#N` [Example 254, 4-[(3-chloro-4-fluorophenyl)amino]-6-[(1H-imidazol-5-ylmethyl)amino]-2-methylquinoline-3-carbonitrile] stands 4.70; under `CCc1nc[nH]c1CNc1cc(Br)c2ncc(C#N)c(Nc3ccc(F)c(Cl)c3)c2c1` [Example 112, 8-bromo-4-(3-chloro-4-fluorophenylamino)-6-((4-ethyl-1H-imidazol-5-yl)methylamino)quinoline-3-carbonitrile], 8.46.
Same read-out and setting: under `N#Cc1cnc2c(C(=O)NCc3ccccc3)cc(NCc3cccnc3)cc2c1Nc1cccc(Cl)c1` [Example 80, N-benzyl-4-(3-chlorophenylamino)-3-cyano-6-(pyridin-3-ylmethylamino)quinoline-8-carboxamide] stands less than 4.40; under `N#Cc1cnc2cc(N3CCOCC3)c(NCc3cnc[nH]3)cc2c1Nc1ccc(F)c(Cl)c1` [Example 160, 6-((1H-imidazol-5-yl)methylamino)-4-(3-chloro-4-fluorophenylamino)-7-morpholinoquinoline-3-carbonitrile], less than 4.40.
`CC(C)C(=O)Nc1cc(NCc2cccnc2)cc2c(Nc3cccc(Cl)c3)c(C#N)cnc12` [Example 81, N-(4-(3-chlorophenylamino)-3-cyano-6-(pyridin-3-ylmethylamino)quinolin-8-yl)isobutyramide]: the pIC50 was less than 4.40.
On the same count and under the same terms, under `CC(C)(C)Nc1c(C#N)cnc2c(Br)cc(NCc3cnc[nH]3)cc12` [Example 98, 6-((1H-imidazol-5-yl)methylamino)-8-bromo-4-(tert-butylamino)quinoline-3-carbonitrile] stands 5.82.

The experiment is the same for the next values; noted with them: Table 2; Tpl2/Cot kinase, GST-MEK1 substrate, 50 uM ATP.
The compound `N#Cc1cnc2c(Br)cc(NCc3cn(Cc4ccccn4)nn3)cc2c1Nc1ccc(F)c(Cl)c1` [Example 579] had a pIC50 of 7.48.
Still for that read-out and setting: under `CN(C)CC(c1ccccc1)n1cc(CNc2cc(Cl)c3ncc(C#N)c(Nc4ccc(F)c(Cl)c4)c3c2)nn1` (centres unmarked) [Example 574] stands 7.15; under `N#Cc1cnc2c(Cl)cc(NCc3cn(CCN4CCOCC4)cn3)cc2c1Nc1ccc(F)c(Cl)c1` [Example 490], 7.48; under `CC(C)(C)OC(=O)N1CCCC1Cn1cc(CNc2cc(Cl)c3ncc(C#N)c(Nc4ccc(F)c(Cl)c4)c3c2)nn1` (centres unmarked) [Example 543], 6.49.
Still for that read-out and setting: under `CN(CCn1cc(CNc2cc(Cl)c3ncc(C#N)c(Nc4ccc(F)c(Cl)c4)c3c2)nn1)C(=O)OC(C)(C)C` [Example 502] stands 7.32; under `N#Cc1c(Nc2ccc(F)c(Cl)c2)c2cc(NCc3cccc[n+]3[O-])ccc2[nH]c1=O` [Example 422], less than 4.40; under `N#Cc1cnc2c(Br)cc(N)cc2c1Nc1ccc(F)c(Cl)c1` [Example 393], 6.28.
For `COc1cc(NCCN2CCOCC2)cc2c(Nc3ccc(F)c(Cl)c3)c(C#N)cnc12` [Example 383], the pIC50 was 5.28.
On the same count and under the same terms, under `N#Cc1cnc2c(I)cc(NCc3cnc[nH]3)cc2c1Nc1ccc(F)c(Cl)c1` [Example 452] stands 7.29; under `CS(=O)(=O)CCn1cc(CNc2cc(Br)c3ncc(C#N)c(Nc4ccc(F)c(Cl)c4)c3c2)nn1` [Example 511], 7.04.

The experiment is the same for the next values; noted with them: Tpl2/Cot kinase, GST-MEK1 substrate, 50 uM ATP.
With `CN1CCCN(CCCn2cc(CNc3cc(Br)c4ncc(C#N)c(Nc5ccc(F)c(Cl)c5)c4c3)nn2)CC1` [Example 793], the pIC50 is 7.15.
Same read-out and setting: under `N#Cc1cnc2c(Cl)cc(NCc3cn(Cc4ccccn4)cn3)cc2c1Nc1ccc(F)c(Cl)c1` [Example 786] stands 7.39; under `N#Cc1cnc2c(Cl)cc(NCc3cn(CC(=O)N4CCCCCCC4)nn3)cc2c1Nc1ccc(F)c(Cl)c1` [Example 815], 8.28; under `CN1CCC(CCn2cc(CNc3cc(Cl)c4ncc(C#N)c(Nc5ccc(F)c(Cl)c5)c4c3)nn2)CC1` [Example 696], 8.77.
Still for that read-out and setting: under `CN1CCCC1CCn1cnc(CNc2cc(Br)c3ncc(C#N)c(Nc4ccc(F)c(Cl)c4)c3c2)c1` (centres unmarked) [Example 708] stands 7.47.
The same measure, in the same setting: under `CCN1CC(CCn2cc(CNc3cc(Cl)c4ncc(C#N)c(Nc5ccc(F)c(Cl)c5)c4c3)nn2)N(c2ccccc2)C1=O` (centres unmarked) [Example 791] stands 7.60; under `CCNC(=O)N1CCC(CCn2cc(CNc3cc(Cl)c4ncc(C#N)c(Nc5ccc(F)c(Cl)c5)c4c3)nn2)CC1` [Example 831], 8.03; under `N#Cc1cnc2c(Cl)cc(NCc3cn(CCc4ccncc4)nn3)cc2c1Nc1ccc(F)c(Cl)c1` [Example 918], 9.05.
For the compound `N#Cc1cnc2c(Br)cc(NCc3cn(Cc4ccccn4)cn3)cc2c1Nc1ccc(F)c(Cl)c1` [Example 785], the pIC50 was 7.47.
With `CN1CCC(Cn2cc(CNc3cc(Br)c4ncc(C#N)c(Nc5ccc(F)c(Cl)c5)c4c3)nn2)CC1` [Example 680], the pIC50 was 7.92.
Still for that read-out and setting: under `Cc1ncccc1Cn1cc(CNc2cc(Cl)c3ncc(C#N)c(Nc4ccc(F)c(Cl)c4)c3c2)nn1` [Example 840] stands 8.00.
On the same count and under the same terms, under `N#Cc1cnc2c(Cl)cc(NCCNS(=O)(=O)Cc3ccccn3)cc2c1Nc1ccc(F)c(Cl)c1` [Example 857] stands 6.17; under `CN(CCn1cc(CN(Cc2cn(CCN(C)C(=O)OC(C)(C)C)nn2)c2cc(Br)c3ncc(C#N)c(Nc4ccc(F)c(Cl)c4)c3c2)nn1)C(=O)OC(C)(C)C` [Example 677], 5.33; under `CC(C)Cn1cc(CNc2cc(Cl)c3ncc(C#N)c(Nc4ccc(F)c(Cl)c4)c3c2)nn1` [Example 847], 6.77.
Still for that read-out and setting: under `N#Cc1cnc2c(Cl)cc(NCc3cn(CCCNC4CCCC4)nn3)cc2c1Nc1ccc(F)c(Cl)c1` [Example 914] stands 7.28; under `CN(C)C(=O)Cn1cc(CN(C)c2cc(Cl)c3ncc(C#N)c(Nc4ccc(F)c(Cl)c4)c3c2)nn1` [Example 851], 6.82.
In turn, `CN(CCCn1cc(CNc2cc(Cl)c3ncc(C#N)c(Nc4ccc(F)c(Cl)c4)c3c2)nn1)C1CCCCC1` [Example 801] showed a pIC50 of 8.74.
Consider `Cc1cc(Cn2cc(CNc3cc(Cl)c4ncc(C#N)c(Nc5ccc(F)c(Cl)c5)c4c3)nn2)ccn1` [Example 837], for which the pIC50 was 7.96.
`N#Cc1cnc2c(Br)cc(NCc3cn(C45CC6CC(CC(C6)C4)C5)nn3)cc2c1Nc1ccc(F)c(Cl)c1` [Example 661] had a pIC50 of 5.77.
Still for that read-out and setting: under `CNCCn1cc(CNc2cc(Br)c3ncc(C#N)c(Nc4ccc(F)c(Cl)c4)c3c2)nn1` [Example 684] stands 7.42; under `CN(C)C(=O)OCCCn1cc(CNc2cc(Br)c3ncc(C#N)c(Nc4ccc(F)c(Cl)c4)c3c2)nn1` [Example 752], 8.46; under `CSCn1cc(CNc2cc(Br)c3ncc(C#N)c(Nc4ccc(F)c(Cl)c4)c3c2)nn1` [Example 705], 7.92.

Staying with this experiment, now noted: Tpl2/Cot kinase, GST-MEK1 substrate, 50 uM ATP, 1 h at 30° C.; Table 2.
`N#Cc1cnc2c(Cl)cc(NCc3cn(C4CCN(C[C@@H](O)[C@H](O)CO)CC4)nn3)cc2c1Nc1ccc(F)c(Cl)c1` [Example 991] had a pIC50 of 8.09.
Turning to `CC(C)(C)OC(=O)N1CCC(n2cc(CNc3ccc4ncc(C#N)c(NC5CCCCC5)c4c3)nn2)CC1` [Example 968], the pIC50 was 6.17.
In turn, `CN1CCN(CCn2cc(CNc3cc(Cl)c4ncc(C#N)c(Nc5ccc(F)c(Cl)c5)c4c3)nn2)CC1` [Example 963] gave a pIC50 of 6.19.
The same measure, in the same setting: under `N#Cc1cnc2c(Cl)cc(NCc3cncc(C4(O)CCNCC4)c3)cc2c1Nc1ccc(F)c(Cl)c1` [Example 1032] stands less than 5.52.
Same read-out and setting: under `CCNC(=O)N1CCN(CCn2cc(CNc3cc(Cl)c4ncc(C#N)c(Nc5ccc(F)c(Cl)c5)c4c3)nn2)CC1` [Example 962] stands 7.64; under `CN(C)CCn1cc(CNc2cc(Cl)c3ncc(C#N)c(NCC(F)(F)F)c3c2)nn1` [Example 984], 5.96.
